Assay results as given in PMC8565515, “Dasabuvir Inhibits Human Norovirus Infection in Human Intestinal Enteroids” (mSphere, 2021).
Structures can show the parent of a compound that is named as a salt. Where two headings read alike, the source gives them in different places.

Experiments:
[1] = system: GII.4 HuNoV; assay: GII.4 HuNoV infection of HIE monolayers, viral genome equivalents by RT-qPCR; format: cell-based, human norovirus; conditions: GII.4 HuNoV, 24 hpi; for activity at 10 µM: Norovirus, 24 h, read-out: (%) HuNoV GEs; for activity at 10 µM / (%) HuNoV GEs: compound 10 μM, n = 1, J2 HIE monolayers, normalized to DMSO control
[2] = system: J2 HIE monolayers; assay: Cytotoxicity by LDH assay in J2 HIE monolayers; conditions: 24 hpi; for (%) Cytotoxicity: compound 10 μM, n = 1, LDH assay, J2 HIE monolayers infected with GII.4 HuNoV, normalized to DMSO control
[3] = system: J2 HIE monolayers; conditions: human, 24 h, 10 μM

| Structure (SMILES) | activity at 10 µM [1] [%] | (%) Cytotoxicity [2] [%] | (%) Cytotoxicity [3] [%] | further results |
| --- | --- | --- | --- | --- |
| CN(C)C[C@H](O)Cn1c2ccc(Br)cc2c2cc(Br)ccc21 (racemic) [Wiskostatin] | 22.9 | 2.02 |  |  |
| C[C@@]1(O)[C@H](O)[C@@H](CO)O[C@H]1n1ccc(N)nc1=O [2-CMC, 2′-C-methylcytidine] |  |  |  | effect on HuNoV infection ([1]; 389 μM, J2 monolayers, positive control): completely blocked viral infection; cytotoxicity ([2]; 389 μM, J2 monolayers): without any cytotoxicity |
| COc1cc2ncnc(Nc3cccc(Cl)c3)c2cc1OC [AG-1478] |  | 84.88 |  |  |
| Nc1ncnc2c1ncn2[C@@H]1O[C@H](COP(=O)(O)O)[C@@H](O)[C@H]1O.O [Adenosine 5'-monophosphate monohydrate] | 34.4 | 0.18 |  |  |
| C=C1CC[C@@H]2[C@](C)(CO)[C@H](O)CC[C@@]2(C)[C@@H]1C/C=C1/C(=O)OC[C@H]1O [Andrographolide] | 70.9 | -1.18 |  |  |
| CCOC(=O)c1c(CSc2ccccc2)n(C)c2cc(Br)c(O)c(CN(C)C)c12.Cl [Arbidol hydrochloride] |  | 15.58 |  | (%) HuNoV GEs [1]: 16.88% |
| COC(=O)c1cc(OC)c2c(c1-c1c(CO)cc(OC)c3c1OCO3)OCO2 [Bicyclol] | 162 | 0.26 |  |  |
| O=c1[nH]c(=O)n([C@H]2C[C@H](O)[C@@H](CO)O2)cc1/C=C/Br [Brivudine] | 34.8 | 4.68 |  |  |
| C[C@H]1CO[C@@H]2Cn3cc(C(=O)NCc4ccc(F)cc4F)c(=O)c(O)c3C(=O)N12 [Cabotegravir] | 54.1 | 5.83 |  |  |
| CC(C)c1nc(CN(C)C(=O)N[C@@H](CCN2CCOCC2)C(=O)N[C@H](CC[C@H](Cc2ccccc2)NC(=O)OCc2cncs2)Cc2ccccc2)cs1 [Cobicistat] | 19.8 | -2.34 |  |  |
| Cc1cc(C)c(Nc2ccnc(Nc3ccc(C#N)cc3)n2)c(C)c1 [Dapivirine] | 24.8 | 0.74 |  |  |
| COC(=O)N[C@H](C(=O)NNC[C@H](O)[C@H](Cc1ccccc1)NC(=O)[C@@H](NC(=O)OC)C(C)(C)C)C(C)(C)C [Des(benzylpyridyl) Atazanavi] |  | 2.40 |  | (%) HuNoV GEs [1]: 101.09% |
| CC1(C)[C@@H](O[C@H]2O[C@H](C(=O)O)[C@@H](O)[C@H](O)[C@H]2O[C@@H]2O[C@H](C(=O)O)[C@@H](O)[C@H](O)[C@H]2O)CC[C@]2(C)[C@H]3C(=O)C=C4[C@@H]5C[C@@](C)(C(=O)O)CC[C@]5(C)CC[C@@]4(C)[C@]3(C)CC[C@@H]12.N.N [Diammonium Glycyrrhizinate] |  | 0.23 |  | (%) HuNoV GEs [1]: 22.61% |
| O=c1c2ccccc2[se]n1-c1ccccc1 [Ebselen] | 96.7 | 2.77 |  |  |
| COc1cc2c(cc1Cc1cccc(Cl)c1F)c(=O)c(C(=O)O)cn2[C@H](CO)C(C)C [Elvitegravir] | 164 | 0.85 |  |  |
| CCOC(=O)CCC(=O)O[C@H]1[C@H](O[C@@H]2[C@@H](C)[C@H](O[C@H]3C[C@@](C)(OC)[C@@H](O)[C@H](C)O3)[C@@H](C)C(=O)O[C@H](CC)[C@@](C)(O)[C@H](O)[C@@H](C)C(=O)[C@H](C)C[C@@]2(C)O)O[C@H](C)C[C@@H]1N(C)C [Erythromycin ethylsuccinate] | 107 | 0.23 |  |  |
| CC[n+]1c(-c2ccccc2)c2cc(N)ccc2c2ccc(N)cc21 [Ethidium bromide] | 21.1 | -1.16 |  |  |
| Cc1cc(C#N)cc(C)c1Oc1nc(Nc2ccc(C#N)cc2)nc(N)c1Br [Etravirine] | 28.8 | 24.52 |  |  |
| NC(=O)c1nc(F)c[nH]c1=O [Favipiravir] | 81 | -1.51 |  |  |
| O=S(=O)(CCC(F)=C(F)F)c1ncc(Cl)s1 [Fluensulfone] |  | -2.22 |  | (%) HuNoV GEs [1]: 63.19% |
| COc1ccc([C@H]2OC[C@H]3[C@@H]2CO[C@H]3c2ccc(O[C@@H]3O[C@H](CO)[C@@H](O)[C@H](O)[C@H]3O)c(OC)c2)cc1OC [Forsythin] |  | 1.24 |  | (%) HuNoV GEs [1]: 52.42% |
| CC1(C)[C@@H](O[C@H]2O[C@H](C(=O)O)[C@@H](O)[C@H](O)[C@H]2O[C@@H]2O[C@H](C(=O)O)[C@@H](O)[C@H](O)[C@H]2O)CC[C@]2(C)[C@H]3C(=O)C=C4[C@@H]5C[C@@](C)(C(=O)O)CC[C@]5(C)CC[C@@]4(C)[C@]3(C)CC[C@@H]12 [Glycyrrhizin] | 103 | 4.28 |  |  |
| Nc1nc2c(ncn2[C@@H]2O[C@H](CO)[C@@H](O)[C@H]2O)c(=O)[nH]1 [Guanosine] | 32.3 | 0.15 |  |  |
| COc1ccnc(C[S+]([O-])c2nc3ccc(-n4cccc4)cc3[n-]2)c1C.[Na+] (stereo not shown) [Ilaprazole sodium] |  | 1.57 |  | (%) HuNoV GEs [1]: 39.34% |
| CC(C)=O.COC(=O)N[C@H](C(=O)N1CC2(CC2)C[C@H]1c1ncc(-c2ccc3c(c2)C(F)(F)c2cc(-c4ccc5nc([C@@H]6[C@H]7CC[C@H](C7)N6C(=O)[C@@H](NC(=O)OC)C(C)C)[nH]c5c4)ccc2-3)[nH]1)C(C)C [Ledipasvir acetone] |  | 6.17 |  | (%) HuNoV GEs [1]: 133.29% |
| CC(C)(C)C#Cc1cc(N(C(=O)[C@H]2CC[C@H](C)CC2)[C@H]2CC[C@H](O)CC2)c(C(=O)O)s1 [Lomibuvir] | 87.6 | -1.75 |  |  |

| Structure (SMILES) | activity at 10 µM [1] [%] | (%) Cytotoxicity [2] [%] | (%) Cytotoxicity [3] [%] | further results |
| --- | --- | --- | --- | --- |
| CC(C)c1cc(Oc2c(Cl)cc(-n3nc(C#N)c(=O)[nH]c3=O)cc2Cl)n[nH]c1=O [MGL3196] | 70.8 | -0.56 |  |  |
| CCOC(=O)c1c(C)n(C)c2ccc(O)cc12 [Mecarbinate] |  | 0.93 |  | (%) HuNoV GEs [1]: 102.13% |
| Cl.N=C(N=C(N)N)N1CCOCC1 [Moroxydine hydrochloride] |  | -1.11 |  | (%) HuNoV GEs [1]: 119.22% |
| CCCCCCCCCC(=O)O[C@H]1CC[C@H]2[C@@H]3CCC4=CC(=O)CC[C@@H]4[C@H]3CC[C@]12C [Nandrolone decanoate] | 58.9 | 0.98 |  |  |
| Nc1nc2c(ncn2CCC(CO)CO)c(=O)[nH]1 [Penciclovir] | 22.1 |  | 2.02 |  |
| O=C(O)c1ccccc1C(=O)Nc1ccc(S(=O)(=O)Nc2nccs2)cc1 [Phthalylsulfathiazole] | 44 |  | 2.05 |  |
| CCOC(=O)c1ccc(OCCC2CCN(c3ccc(C)nn3)CC2)cc1 [Pirodavir] | 50.5 |  | -3.64 |  |
| CCOCc1nc2c(N)nc3ccccc3c2n1CC(C)(C)O [Resiquimod] | 76.7 |  | 2.61 |  |
| Cc1nc(Nc2ccc(F)cc2)nc(N2CCc3ccccc3C2C)c1C (stereo not shown) [Revaprazan hydrochloride] | 214 |  | 0.20 |  |
| CO[C@H]1/C=C/O[C@@]2(C)Oc3c(C)c(O)c4c(O)c(c(/C=N/N5CCN(C)CC5)c(O)c4c3C2=O)NC(=O)/C(C)=C\C=C\[C@H](C)[C@H](O)[C@@H](C)[C@@H](O)[C@@H](C)[C@H](OC(C)=O)[C@@H]1C [Rifampicin] | 60.2 |  | 2.64 |  |
| CC(C)c1nc(CN(C)C(=O)N[C@H](C(=O)N[C@@H](Cc2ccccc2)C[C@H](O)[C@H](Cc2ccccc2)NC(=O)OCc2cncs2)C(C)C)cs1 [Ritonavir] | 52.7 |  | 1.11 |  |
| Cc1cc(F)c(C(=O)Nc2cccc(-c3nncn3C(C)C)n2)cc1-n1cnc(C2CC2)c1 [Selonsertib] | 48.5 |  | -2.58 |  |
| NCCCNCCCCNCCCN [Spermine] | 116 |  | 2.77 |  |
| Cc1cn([C@H]2C=C[C@@H](CO)O2)c(=O)[nH]c1=O [Stavudine] | 124 |  | 2.15 |  |
| COc1ncnc(NS(=O)(=O)c2ccc(N)cc2)c1OC [Sulfadoxine] | 50 |  | 2.36 |  |
| CCC[C@H](NC(=O)[C@@H]1[C@H]2CCC[C@H]2CN1C(=O)[C@@H](NC(=O)[C@@H](NC(=O)c1cnccn1)C1CCCCC1)C(C)(C)C)C(=O)C(=O)NC1CC1 [Telaprevir] | 53.2 |  | 0.86 |  |
| Cc1cn([C@@H]2C[C@@H](O)[C@H](CO)O2)c(=O)[nH]c1=O [Telbivudine] | 70.2 |  | -0.33 |  |
| C[C@H](Cn1cnc2c(N)ncnc21)OCP(=O)(O)O [Tenofovir] | 56.5 |  | 0.98 |  |
| CCS(=O)(=O)CCn1c([N+](=O)[O-])cnc1C [Tinidazole] | 41 |  | -0.09 |  |
| O=c1[nH]c(=O)n([C@H]2C[C@H](O)[C@@H](CO)O2)cc1C(F)(F)F [Trifluridine] | 77.1 |  | 0.46 |  |
| Clc1ccc(C(Cn2ccnc2)OCc2ccsc2Cl)c(Cl)c1 (stereo not shown) [Vagistat] | 28.3 |  | 3.16 |  |
| CC(C)[C@H](N)C(=O)OCCOCn1cnc2c(=O)[nH]c(N)nc21 [Valacyclovir hydrochloride] | 22.4 |  | 0.09 |  |
| CC(C)[C@H](N)C(=O)OCC(CO)OCn1cnc2c(=O)nc(N)[nH]c21 (stereo partly shown) [Valganciclovir hydrochloride] | 189 |  | 0.33 |  |
| Nc1ncnc2c1ncn2[C@@H]1O[C@H](CO)[C@@H](O)[C@@H]1O [Vidarabine] | 51.4 |  | -2.58 |  |
| C[C@@H](c1ncncc1F)[C@](O)(Cn1cncn1)c1ccc(F)cc1F [Voriconazole] | 14.1 |  | -1.63 |  |
| Nc1ccn([C@H]2CC[C@@H](CO)O2)c(=O)n1 [Zalcitabine] | 71.5 |  | 2.88 |  |
